The values that follow come from US20230181512A1, “METHODS FOR THE TREATMENT OF INFANTILE SPASMS USING MEDIUM CHAIN TRIGLYCERIDES” (Cerecin Inc., priority 2020, published 2023).

For data set [1], the system named is Infantile spasms (IS) patients. As to conditions: cited from earlier work.
For data set [2] the following is noted: cited from earlier work; for adverse events (AEs) associated with treatment: IS treatment, refs [32], [1].
For data set [3], the system named is rat triple hit model of IS. Put plainly: Rat triple hit model of IS (DOX, LPS, PCPA): spasm frequency. The data set is classed as in vivo, Sprague Dawley rats. The following applies: for spasms/hr / spasms/hour: P5-P7, scored on P7; for spasms/hour: vehicle/milk only mean 4.5 (SD 2.3). The text has this: Various animal models of IS have been created as tools to test efficacy of various interventions. One such example is a rat triple hit model developed by Scantlebury and co-authors. This model was developed “based on evidence that structural or functional abnormalities in cortical or subcortical structures may be necessary to produce IS.” [11]. The model uses three lesions to induce infantile spasms. The lesions include doxorubicin (DOX), lipopolysaccharide (LPS) and p-chlorophenylalanine (PCPA). DOX is an inhibitor of topo isomerase 2 that results in diffuse brain damage involving the forebrain and brainstem when injected intraventricularly. LPS can stimulate the release of inflammatory cytokines in various cell types, leading to an acute inflammatory response. Intracerebral injection of LPS in rat pups activates inflammatory cascades resulting in hypomyelination, white matter rarefaction and necrosis. PCPA depletes serotonin by inhibiting the enzyme tryptophan hydroxylase.
In accordance with embodiments of the disclosure, tricaprilin was tested for its ability to reduce spasm frequency in this triple hit model. These studies were done using timed pregnant Sprague Dawley rats. Animals were maintained in a 12 hr light/dark cycle and had free access to food and water. The day of birth was considered as P0. Animal care and use conformed to institutional policy and guidelines of the American Association for the Accreditation of Laboratory Animal Care. All procedures and experiments were performed in accordance with the National Institute of Health Guide for the Care and Use of Laboratory Animals.
At postnatal day (P) 3 DOX (5 μg/2.5 μl) and LPS (3 μg/1.5 μl) were given intracerebrally and at P5 PCPA is given intraperitoneally (i.p.) (200 mg/kg). Intracerebral infusions of DOX and LPS were done stereotaxically under isoflurane anesthesia. Pups were positioned in a stereotaxic frame for neonatal rat surgery (Benchmark Angle One, MyNeurolab.com, St Louis Mo.). DOX was injected into the right lateral ventricle followed by LPS into the right parietal cortex. Pups were individually placed in beakers warmed in a water bath and filled with bedding (31-33° C.) and fed via a cheek cannula. Spasms begin at day P4 and continue to P13.
Tricaprilin was administered either by oral gavage (administered twice a day), or steadily in milk via the cheek cannula, from P5-P7. […] For gavage, tricaprilin was administered at 5 ml/kg/day and 10 ml/kg/day. When mixed with milk, tricaprilin was administered at 5, 10 and 30 ml/kg/day. Each group comprised 5 animals. Spasms were recorded and scored on P7, urine ketones collected on P7 at 6 and 12 hours after gavage and same timepoints for milk fed pups. The behaviors of the pups were monitored using a video camera for 2 hours twice daily from P4 (first post-operative day) until P20.
The frequency of spasms varied by concentration of tricaprilin used. […] With reference to FIG. 2B, when tricaprilin was mixed with milk at 5 ml/kg/day spasms/hr were 3.1 (SD 1.7, pvalue=0.300), at 10 ml/kg/day 3.0 (SD 0.8, pvalue=0.139), and at 30 ml/kg/day 1.75 (SD 1.7, pvalue 0.079).

“Also recorded” adds a separate entry of the source. Read-outs that look alike come from different tables or passages of the source.

Consider `C[C@]12C=CC(=O)C=C1CC[C@@H]1[C@@H]2[C@@H](O)C[C@@]2(C)[C@H]1CC[C@]2(O)C(=O)CO` [Prednisolone], for which the “% of patient spasms stopped” value in data set [1] (40-60 mg/day, N 30, ref [17]) is listed as 70%.
Take `C[C@]12C=CC(=O)C=C1CC[C@@H]1[C@@H]2C(=O)C[C@@]2(C)[C@H]1CC[C@]2(O)C(=O)CO` [Prednisone]: the “% of patient spasms stopped” value in data set [1] (2 mg/kg/day, N 12, ref [19]) is reported as 33%.
For the compound `C=CC(N)CCC(=O)O` (stereo not drawn) [VGB, Vigabatrin], the “% of patient spasms stopped” value in data set [1] (18-36 mg/kg/day, N 75, ref [18]) is 11%; in data set [1] (100-148 mg/kg/day, N 67, ref [18]), 36%; in data set [1] (100-150 mg/kg/day, N 52, ref [17]), 54%. The “adverse events (AEs) associated with treatment” value in data set [2] is “sedation, irritability, insomnia and hypotonia”. In addition, in data set [2] (persist even with discontinuation of the drug, ref [1]), the visual field defects entry is “serious visual field defects that are permanent”.
Turning to `CCCCCCCC(=O)OCC(COC(=O)CCCCCCC)OC(=O)CCCCCCC` [tricaprilin], the spasms/hr in data set [3] (mixed with milk 5 ml/kg/day, SD 1.7, pvalue=0.300) came out at 3.1 spasms/hr; in data set [3] (mixed with milk 10 ml/kg/day, SD 0.8, pvalue=0.139), 3.0 spasms/hr; in data set [3] (mixed with milk 30 ml/kg/day, SD 1.7, pvalue 0.079), 1.75 spasms/hr. Further, the spasms/hour came out at 2.3 spasms/hour in data set [3] (oral gavage 5 ml/kg/day, SD 1.6, pvalue 0.155) and 1.4 spasms/hour in data set [3] (oral gavage 10 ml/kg, SD 0.9, pvalue=0.036). For the same compound, in data set [3] (oral gavage and feeding in milk), the “effect on spasms compared to vehicle (in words)” value is reported as “reduction in spasms/hr; also recorded: reduces spasms”.
For the compound “Adrenocorticotropic hormone (SYSMEHFRWGKPVGKKRRPVKVYPNGAEDESAEAFPLEF; Corticotropin; UniProt P01189 138-176, looked up) [ACTH, first line hormonal therapy for IS]”, the “% of patient spasms stopped” value in data set [1] (20-20 IU/day, N 24, ref [16]) is reported as 58%; in data set [1] (150 IU/m2/day divided B.I.D., N 15, ref [13]), 93%; in data set [1] (150 IU/m2/day, N 26, ref Hrachovy, 1994 #681}) it was 50%. In addition, the “subjects responded with both clinical cessation of spasms and abolition of hypsarrhythmia on EEG” value in data set [1] (high-dose natural ACTH 150 IU/m2/day given twice daily, 2 weeks then taper, Baram et al. [13]) is given as 87%. In addition, the “adverse events (AEs) associated with treatment” value in data set [2] is “hypertension, immune suppression, infection, electrolyte imbalances, GI disturbances, ocular opacities, hypertrophic cardiomyopathy, cerebral atrophy and growth impairment”.
